The target in one experiment is T1, FKBP51 (Homo sapiens, UniProt Q13451).
T1 sequence (Q13451 42-130 limits assumed): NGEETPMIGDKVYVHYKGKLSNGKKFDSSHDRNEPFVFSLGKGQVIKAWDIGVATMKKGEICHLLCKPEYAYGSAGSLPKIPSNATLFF
Kind of experiment: Fluorescence polarization binding assay, FK1-domain of FKBP51WT with tracer F4. As to conditions: compounds B01-C25; read-out: Affinity(Ki) for FKBP51. On the set-up: Purified FK1-domains of FKBP51WT (4.5 nM) with F4 (3 nM), FKBP52WT (400 nM) with F2 (20 nM); made in house; host or cells: E. coli BL21(DE3)pLysS. As for the experimental part:
(§1) The target protein was also diluted in this assay buffer at double the highest concentration required for the final sample. This protein stock was used for a 1:1 serial dilution.
(§2) The inventive compound was dissolved in DMSO to reach a 100-times concentrated stock solution. This was used for a 1:1 serial dilution in DMSO.
(§3) For FKBP12, −51, and −52 the binding assays were performed in duplicates in the plate format.
(§4) The competition curves were analyzed by using SigmaPlot9. Data were fitted to a four parameter logistic curve to deduce the IC50 values. […] A=(Amax−Amin)/[L]t×(([L]t×((2×((Klig+Kcomp+[L]t+[I]t−[R]t)^2−3×(Kcomp×([L]t−[R]t)+Klig×([I]t−[R]t)+Klig×Kcomp))^0.5×COS(ARCCOS((−2×(Klig+Kcomp+[L]t+[I]t−[R]t)^3+9×(Klig+Kcomp+[L]t+[I]t−[R]t)×(Kcomp×([L]t−[R]t)+Klig×([I]t−[R]t)+Klig×Kcomp)−27×(−1×Klig×Kcomp×[R]t))/(2×((((Klig+Kcomp+[L]t+[I]t−[R]t)^2−3×(Kcomp×([L]t−[R]t)+Klig×([I]t−[R]t)+Klig×Kcomp))^3)^0.5)))/3))−(Klig+Kcomp+[L]t+[I]t−[R]t)))/((3×Klig)+((2×((Klig+Kcomp+[L]t+[I]t−[R]t)^2−3×(Kcomp×([L]t−[R]t)+Klig×([I]t−[R]t)+Klig×Kcomp))^0.5×COS(ARCCOS((−2×(Klig+Kcomp+[L]t+[I]t−[R]t)^3+9×(Klig+Kcomp+[L]t+[I]t−[R]t)×(Kcomp×([L]t−[R]t)+Klig×([I]t−[R]t)+Klig×Kcomp)−27×(−1×Klig×Kcomp×[R]t))/(2×((((Klig+Kcomp+[L]t+[I]t−[R]t)^2−3×(Kcomp×([L]t−[R]t)+Klig×([I]t−[R]t)+Klig×Kcomp))^3)^0.5)))/3))−(Klig+Kcomp+[L]t+[I]t−[R]t))))+Amin
(§5) In this equation Klig and Kcomp stand for the Kd values of the used tracer or competing inhibitor, [I]t is referring to the total concentration of the titrated inhibitor.
(§6) Inhibition constants were measured in a fluorescence polarization binding assay by titrating the compounds.

The next experiment has as its target T2, FKBP52 (Homo sapiens, UniProt Q02790).
T2 construct: Purified FK1-domains of FKBP51WT (4.5 nM) with F4 (3 nM), FKBP52WT (400 nM) with F2 (20 nM); implied by Ni-NTA purification) (N); made in house; host or cells: E. coli BL21(DE3)pLysS
T2 sequence (Q02790 50-138 limits assumed): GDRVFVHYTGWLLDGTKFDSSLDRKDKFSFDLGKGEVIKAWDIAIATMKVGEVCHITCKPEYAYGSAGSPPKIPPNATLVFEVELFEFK
The experiment is described as follows: Fluorescence polarization binding assay, FK1-domain of FKBP52WT with tracer F2 (selectivity FKBP51 vs. FKBP52). As to conditions: selectivity factor over FKBP52; compounds B01-C25. The method, then:
as §1, §2, §3, §4, §5
The Selectivity of the Compounds was Classified by Ki(FKBP51)/Ki(FKBP52)
as §6
In general terms: Polarisation of emitted light reports the rotation of a fluorescent probe.

Structures are written as SMILES.

As to `COc1cc([C@@H](C(=O)N2CCCC[C@H]2C(=O)N[C@H](C(N)=O)C(C)C)C2CCCCC2)cc(OC)c1OC` [Compound B03, (S)-N-((S)-1-amino-3-methyl-1-oxobutan-2-yl)-1-((S)-2-cyclohexyl-2-(3,4,5-trimethoxyphenyl)acetyl)piperidine-2-carboxamide], at FKBP51, the Ki was 10 to 50 µM. The “Ki(FKBP51)/Ki(FKBP52)” value on FKBP52 is “+ (>5 +)”.
`COc1cc([C@@H](C(=O)N2CCCC[C@H]2C(=O)N[C@@H](C(N)=O)C(C)C)C2CCCCC2)cc(OC)c1OC` [Compound B04, (S)-N-((R)-1-amino-3-methyl-1-oxobutan-2-yl)-1-((S)-2-cyclohexyl-2-(3,4,5-trimethoxyphenyl)acetyl)piperidine-2-carboxamide]: the Ki on FKBP51 was in the range of 1 to 10 µM. The “Ki(FKBP51)/Ki(FKBP52)” value at FKBP52 is “+ (>5 +)”.
On to `COc1cc([C@@H](C(=O)N2CCCC[C@H]2C(=O)N[C@@H](Cc2ccccc2)C(N)=O)C2CCCCC2)cc(OC)c1OC` [Compound B05, (S)-N-((S)-1-amino-1-oxo-3-phenylpropan-2-yl)-1-((S)-2-cyclohexyl-2-(3,4,5-trimethoxyphenyl)acetyl)piperidine-2-carboxamide], for which the Ki on FKBP51 lay within 1 to 10 µM. Moreover, the “Ki(FKBP51)/Ki(FKBP52)” value on FKBP52 was “++ (>50 ++)”.
For the compound `COc1cc([C@@H](C(=O)N2CCCC[C@H]2C(=O)N[C@H](Cc2ccccc2)C(N)=O)C2CCCCC2)cc(OC)c1OC` [Compound B06, (S)-N-((R)-1-amino-1-oxo-3-phenylpropan-2-yl)-1-((S)-2-cyclohexyl-2-(3,4,5-trimethoxyphenyl)acetyl)piperidine-2-carboxamide], the Ki at FKBP51 was 1 to 10 µM. For the same compound, the “Ki(FKBP51)/Ki(FKBP52)” value at FKBP52 is “++ (>50 ++)”.
The corresponding values for `COc1cc([C@@H](C(=O)N2CCCC[C@H]2C(=O)N[C@@H](CC2CCCCC2)C(N)=O)C2CCCCC2)cc(OC)c1OC` [Compound B07, (S)-N-((S)-1-amino-3-cyclohexyl-1-oxopropan-2-yl)-1-((S)-2-cyclohexyl-2-(3,4,5-trimethoxyphenyl)acetyl)piperidine-2-carboxamide] are 10 to 50 µM and “+ (>5 +)”.
On the same counts, the results for `COc1cc([C@@H](C(=O)N2CCCC[C@H]2C(=O)N[C@@H](CCc2ccccc2)C(N)=O)C2CCCCC2)cc(OC)c1OC` [Compound B08, (S)-N-((S)-1-amino-1-oxo-4-phenylbutan-2-yl)-1-((S)-2-cyclohexyl-2-(3,4,5-trimethoxyphenyl)acetyl)piperidine-2-carboxamide] are 1 to 10 µM and “++ (>50 ++)”.
For the compound `COc1cc([C@@H](C(=O)N2CCCC[C@H]2C(=O)N[C@@H](CCC2CCCCC2)C(N)=O)C2CCCCC2)cc(OC)c1OC` [Compound B09, (S)-N-((S)-1-amino-4-cyclohexyl-1-oxobutan-2-yl)-1-((S)-2-cyclohexyl-2-(3,4,5-trimethoxyphenyl)acetyl)piperidine-2-carboxamide], the inhibitory constant (Ki) at FKBP51 is 10 to 50 µM. Also, the “Ki(FKBP51)/Ki(FKBP52)” value on FKBP52 is given as “++ (>50 ++)”.
The corresponding values for `COc1cc([C@@H](C(=O)N2CCCC[C@H]2C(=O)NCC(N)=O)C2CCCCC2)cc(OC)c1OC` [Compound B10, (S)-N-(2-amino-2-oxoethyl)-1-((S)-2-cyclohexyl-2-(3,4,5-trimethoxyphenyl)acetyl)piperidine-2-carboxamide] are 10 to 50 µM and “+ (>5 +)”.
As for `COc1cc([C@@H](C(=O)N2CCCC[C@H]2C(=O)NC(C)(C)C(N)=O)C2CCCCC2)cc(OC)c1OC` [Compound B11, (S)-N-(1-amino-2-methyl-1-oxopropan-2-yl)-1-((S)-2-cyclohexyl-2-(3,4,5-trimethoxyphenyl)acetyl)piperidine-2-carboxamide], the Ki on FKBP51 was in the range of 1 to 10 µM. In addition, on FKBP52, the “Ki(FKBP51)/Ki(FKBP52)” value was “+++ (>500 +++)”.
Consider `CC[C@H](NC(=O)[C@@H]1CCCCN1C(=O)[C@H](c1cc(OC)c(OC)c(OC)c1)C1CCCCC1)C(N)=O` [Compound B12, (S)-N-((S)-1-amino-1-oxobutan-2-yl)-1-((S)-2-cyclohexyl-2-(3,4,5-trimethoxyphenyl)acetyl)piperidine-2-carboxamide], for which the Ki on FKBP51 was in the range of 1 to 10 µM. At FKBP52, the “Ki(FKBP51)/Ki(FKBP52)” value was “++ (>50 ++)”.
As for `CC[C@@H](NC(=O)[C@@H]1CCCCN1C(=O)[C@H](c1cc(OC)c(OC)c(OC)c1)C1CCCCC1)C(N)=O` [Compound B13, (S)-N-((R)-1-amino-1-oxobutan-2-yl)-1-((S)-2-cyclohexyl-2-(3,4,5-trimethoxyphenyl)acetyl)piperidine-2-carboxamide], at FKBP51, the Ki lay within 1 to 10 µM. Also, the “Ki(FKBP51)/Ki(FKBP52)” value on FKBP52 was “++ (>50 ++)”.
Consider `CC[C@H](C)[C@H](NC(=O)[C@@H]1CCCCN1C(=O)[C@H](c1cc(OC)c(OC)c(OC)c1)C1CCCCC1)C(N)=O` [Compound B14, (S)-N-((2S,3S)-1-amino-3-methyl-1-oxopentan-2-yl)-1-((S)-2-cyclohexyl-2-(3,4,5-trimethoxyphenyl)acetyl)piperidine-2-carboxamide], for which the Ki at FKBP51 fell in the range of 1 to 10 µM. In addition, on FKBP52, the “Ki(FKBP51)/Ki(FKBP52)” value is reported as “++ (>50 ++)”.
Turning to `CC[C@@H](C)[C@@H](NC(=O)[C@@H]1CCCCN1C(=O)[C@H](c1cc(OC)c(OC)c(OC)c1)C1CCCCC1)C(N)=O` [Compound B15, (S)-N-((2R,3R)-1-amino-3-methyl-1-oxopentan-2-yl)-1-((S)-2-cyclohexyl-2-(3,4,5-trimethoxyphenyl)acetyl)piperidine-2-carboxamide], the inhibition constant Ki on FKBP51 fell in the range of 1 to 10 µM. The “Ki(FKBP51)/Ki(FKBP52)” value on FKBP52 is “++ (>50 ++)”.
For the compound `COc1cc([C@@H](C(=O)N2CCCC[C@H]2C(=O)N[C@H](C(N)=O)C2CCCCC2)C2CCCCC2)cc(OC)c1OC` [Compound B18, (S)-N-((S)-2-amino-1-cyclohexyl-2-oxoethyl)-1-((S)-2-cyclohexyl-2-(3,4,5-trimethoxyphenyl)acetyl)piperidine-2-carboxamide], the Ki on FKBP51 was 1 to 10 µM. Besides, the “Ki(FKBP51)/Ki(FKBP52)” value on FKBP52 is listed as “++ (>50 ++)”.
For `COc1cc([C@@H](C(=O)N2CCCC[C@H]2C(=O)N[C@H](CO)C(N)=O)C2CCCCC2)cc(OC)c1OC` [Compound B21, (S)-N-((R)-1-amino-3-hydroxy-1-oxopropan-2-yl)-1-((S)-2-cyclohexyl-2-(3,4,5-trimethoxyphenyl)acetyl)piperidine-2-carboxamide], the Ki at FKBP51 is 1 to 10 µM. Moreover, the “Ki(FKBP51)/Ki(FKBP52)” value at FKBP52 is given as “++ (>50 ++)”.
For the compound `COc1cc([C@@H](C(=O)N2CCCC[C@H]2C(=O)N[C@@H](CO)C(N)=O)C2CCCCC2)cc(OC)c1OC` [Compound B22, (S)-N-((S)-1-amino-3-hydroxy-1-oxopropan-2-yl)-1-((S)-2-cyclohexyl-2-(3,4,5-trimethoxyphenyl)acetyl)piperidine-2-carboxamide], the Ki on FKBP51 was in the range of 1 to 10 µM. Moreover, the “Ki(FKBP51)/Ki(FKBP52)” value on FKBP52 is “++ (>50 ++)”.
On the same counts, the results for `COc1cc([C@@H](C(=O)N2CCCC[C@H]2C(=O)N[C@@H](CCC(N)=O)C(N)=O)C2CCCCC2)cc(OC)c1OC` [Compound B23, (S)-2-((S)-1-((S)-2-cyclohexyl-2-(3,4,5-trimethoxyphenyl)acetyl)piperidine-2-carboxamido)pentanediamide] are 10 to 50 µM and “+ (>5 +)”.
Regarding `COc1cc([C@@H](C(=O)N2CCCC[C@H]2C(=O)N[C@H](CCC(N)=O)C(N)=O)C2CCCCC2)cc(OC)c1OC` [Compound B24, (R)-2-((S)-1-((S)-2-cyclohexyl-2-(3,4,5-trimethoxyphenyl)acetyl)piperidine-2-carboxamido)pentanediamide], the Ki on FKBP51 was 1 to 10 µM. Also, the “Ki(FKBP51)/Ki(FKBP52)” value at FKBP52 is recorded as “++ (>50 ++)”.
Turning to `COc1cc([C@@H](C(=O)N2CCCC[C@H]2C(=O)NC(C)(C)CC(N)=O)C2CCCCC2)cc(OC)c1OC` [Compound B25, (S)-N-(4-amino-2-methyl-4-oxobutan-2-yl)-1-((S)-2-cyclohexyl-2-(3,4,5-trimethoxyphenyl)acetyl)piperidine-2-carboxamide], the Ki at FKBP51 lay within 1 to 10 µM. In addition, at FKBP52, the “Ki(FKBP51)/Ki(FKBP52)” value was “+++ (>500 +++)”.

The term Ki denotes a dissociation constant, usually derived from enzyme kinetics or from competition with a known ligand.

For the origin of these results see US9845292B2 (Max-Planck-Gesellschaft zur Förderung der Wissenschaften …, priority 2013, dated 2017).
